Experiments:
[1] = target: T1, von Hippel-Lindau disease tumor suppressor/SWI/SNF-related matrix-associated actin-dependent regulator of chromatin subfamily A member 4 (Homo sapiens, UniProt P51532+P40337); experiment: PROTAC activity at VHL/C-terminal HiBiT fused SMARCA4 in human HeLa cells assessed as induction of SMARCA4 degradation at 0.00001 to 1 uM by Nano-Glo HiBiT analysis; format: cell-based; conditions: dose lower 1e-05 µM, dose upper 1.0 µM, time 6-48 hrs, TDE = time-dependent effect
Target sequence in this assay (P40337 whole entry, looked up, the tested form may be a part): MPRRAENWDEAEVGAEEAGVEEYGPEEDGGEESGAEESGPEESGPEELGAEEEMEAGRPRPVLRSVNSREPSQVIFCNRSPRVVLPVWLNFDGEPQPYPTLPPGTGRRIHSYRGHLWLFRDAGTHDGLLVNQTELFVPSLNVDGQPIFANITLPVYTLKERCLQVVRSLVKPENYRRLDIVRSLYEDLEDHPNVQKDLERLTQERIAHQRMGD
Target sequence in this assay (P51532 whole entry, looked up, the tested form may be a part): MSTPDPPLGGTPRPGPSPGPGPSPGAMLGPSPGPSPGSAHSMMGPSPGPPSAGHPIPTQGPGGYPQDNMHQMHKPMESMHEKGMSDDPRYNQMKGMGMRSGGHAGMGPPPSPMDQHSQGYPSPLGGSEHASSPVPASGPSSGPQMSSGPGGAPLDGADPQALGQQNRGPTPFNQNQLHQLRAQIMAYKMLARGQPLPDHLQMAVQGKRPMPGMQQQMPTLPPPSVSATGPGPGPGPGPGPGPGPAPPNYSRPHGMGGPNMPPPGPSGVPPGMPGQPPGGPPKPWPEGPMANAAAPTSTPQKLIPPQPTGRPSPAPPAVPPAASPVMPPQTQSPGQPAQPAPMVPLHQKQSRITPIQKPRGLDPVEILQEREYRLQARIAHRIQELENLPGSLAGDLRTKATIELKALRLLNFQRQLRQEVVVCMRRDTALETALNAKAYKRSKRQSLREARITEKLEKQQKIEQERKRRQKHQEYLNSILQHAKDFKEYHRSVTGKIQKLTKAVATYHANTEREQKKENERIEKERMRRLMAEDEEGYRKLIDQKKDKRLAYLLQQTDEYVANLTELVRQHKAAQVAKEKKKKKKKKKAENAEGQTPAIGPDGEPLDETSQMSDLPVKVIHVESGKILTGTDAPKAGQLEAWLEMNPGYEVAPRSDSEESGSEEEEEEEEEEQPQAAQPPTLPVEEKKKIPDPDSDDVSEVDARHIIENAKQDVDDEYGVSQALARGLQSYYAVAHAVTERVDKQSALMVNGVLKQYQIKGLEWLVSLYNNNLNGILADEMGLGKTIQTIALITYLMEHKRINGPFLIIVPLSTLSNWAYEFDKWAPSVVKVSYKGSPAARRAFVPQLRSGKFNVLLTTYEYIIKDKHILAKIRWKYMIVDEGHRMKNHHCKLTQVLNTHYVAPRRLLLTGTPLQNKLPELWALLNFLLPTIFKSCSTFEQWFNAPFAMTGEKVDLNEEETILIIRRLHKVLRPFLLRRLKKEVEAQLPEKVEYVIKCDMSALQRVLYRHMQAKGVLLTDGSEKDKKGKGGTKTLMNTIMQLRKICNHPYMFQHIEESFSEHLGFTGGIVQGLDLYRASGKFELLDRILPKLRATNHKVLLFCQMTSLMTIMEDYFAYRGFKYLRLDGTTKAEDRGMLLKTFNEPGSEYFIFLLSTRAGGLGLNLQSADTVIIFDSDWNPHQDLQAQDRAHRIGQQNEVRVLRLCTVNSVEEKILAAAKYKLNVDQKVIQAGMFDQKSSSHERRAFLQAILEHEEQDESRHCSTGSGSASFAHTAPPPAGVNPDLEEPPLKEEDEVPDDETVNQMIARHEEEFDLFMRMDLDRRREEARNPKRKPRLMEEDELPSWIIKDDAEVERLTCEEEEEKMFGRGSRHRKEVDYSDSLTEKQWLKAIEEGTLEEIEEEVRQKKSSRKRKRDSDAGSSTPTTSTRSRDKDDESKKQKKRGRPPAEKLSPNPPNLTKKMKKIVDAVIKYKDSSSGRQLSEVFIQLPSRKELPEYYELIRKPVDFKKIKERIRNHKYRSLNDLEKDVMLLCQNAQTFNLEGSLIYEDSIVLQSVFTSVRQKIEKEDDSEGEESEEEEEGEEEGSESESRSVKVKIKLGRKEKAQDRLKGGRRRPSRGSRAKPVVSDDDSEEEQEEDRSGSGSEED

NCI-H838 [2] = experiment: Antiproliferative activity against SMARCA4-deficient human NCI-H838 cells assessed as cell growth inhibition by measuring maximal efficacy measured after 7 days by WST-8 assay relative to control; format: functional; conditions: time 7 day
[3] = target: T1, von Hippel-Lindau disease tumor suppressor/SWI/SNF-related matrix-associated actin-dependent regulator of chromatin subfamily A member 4; experiment: PROTAC activity at VHL/C-terminal HiBiT fused SMARCA4 in human HeLa cells assessed as induction of SMARCA4 degradation incubated for 24 hrs by Nano-Glo HiBiT analysis; format: cell-based
NCI-H1299 [4] = experiment: Antiproliferative activity against SMARCA4-deficient human NCI-H1299 cells assessed as cell growth inhibition by measuring maximal efficacy measured after 7 days by WST-8 assay relative to control; format: functional; conditions: time 7 day
[5] = target: T2, von Hippel-Lindau disease tumor suppressor/SWI/SNF-related matrix-associated actin-dependent regulator of chromatin subfamily A member 2 (Homo sapiens, UniProt P51531+P40337); experiment: PROTAC activity at VHL/C-terminal HiBiT fused SMARCA2 in human HeLa cells assessed as induction of SMARCA2 degradation at 0.000001 to 1 uM by Nano-Glo HiBiT analysis; format: cell-based; conditions: dose lower 1e-06 µM, dose upper 1.0 µM, time 6-48 hrs, TDE = time-dependent effect
Target sequence in this assay (P40337 whole entry, looked up, the tested form may be a part): as the sequence (P40337 whole entry, looked up, the tested form may be a part) above
Target sequence in this assay (P51531 whole entry, looked up, the tested form may be a part): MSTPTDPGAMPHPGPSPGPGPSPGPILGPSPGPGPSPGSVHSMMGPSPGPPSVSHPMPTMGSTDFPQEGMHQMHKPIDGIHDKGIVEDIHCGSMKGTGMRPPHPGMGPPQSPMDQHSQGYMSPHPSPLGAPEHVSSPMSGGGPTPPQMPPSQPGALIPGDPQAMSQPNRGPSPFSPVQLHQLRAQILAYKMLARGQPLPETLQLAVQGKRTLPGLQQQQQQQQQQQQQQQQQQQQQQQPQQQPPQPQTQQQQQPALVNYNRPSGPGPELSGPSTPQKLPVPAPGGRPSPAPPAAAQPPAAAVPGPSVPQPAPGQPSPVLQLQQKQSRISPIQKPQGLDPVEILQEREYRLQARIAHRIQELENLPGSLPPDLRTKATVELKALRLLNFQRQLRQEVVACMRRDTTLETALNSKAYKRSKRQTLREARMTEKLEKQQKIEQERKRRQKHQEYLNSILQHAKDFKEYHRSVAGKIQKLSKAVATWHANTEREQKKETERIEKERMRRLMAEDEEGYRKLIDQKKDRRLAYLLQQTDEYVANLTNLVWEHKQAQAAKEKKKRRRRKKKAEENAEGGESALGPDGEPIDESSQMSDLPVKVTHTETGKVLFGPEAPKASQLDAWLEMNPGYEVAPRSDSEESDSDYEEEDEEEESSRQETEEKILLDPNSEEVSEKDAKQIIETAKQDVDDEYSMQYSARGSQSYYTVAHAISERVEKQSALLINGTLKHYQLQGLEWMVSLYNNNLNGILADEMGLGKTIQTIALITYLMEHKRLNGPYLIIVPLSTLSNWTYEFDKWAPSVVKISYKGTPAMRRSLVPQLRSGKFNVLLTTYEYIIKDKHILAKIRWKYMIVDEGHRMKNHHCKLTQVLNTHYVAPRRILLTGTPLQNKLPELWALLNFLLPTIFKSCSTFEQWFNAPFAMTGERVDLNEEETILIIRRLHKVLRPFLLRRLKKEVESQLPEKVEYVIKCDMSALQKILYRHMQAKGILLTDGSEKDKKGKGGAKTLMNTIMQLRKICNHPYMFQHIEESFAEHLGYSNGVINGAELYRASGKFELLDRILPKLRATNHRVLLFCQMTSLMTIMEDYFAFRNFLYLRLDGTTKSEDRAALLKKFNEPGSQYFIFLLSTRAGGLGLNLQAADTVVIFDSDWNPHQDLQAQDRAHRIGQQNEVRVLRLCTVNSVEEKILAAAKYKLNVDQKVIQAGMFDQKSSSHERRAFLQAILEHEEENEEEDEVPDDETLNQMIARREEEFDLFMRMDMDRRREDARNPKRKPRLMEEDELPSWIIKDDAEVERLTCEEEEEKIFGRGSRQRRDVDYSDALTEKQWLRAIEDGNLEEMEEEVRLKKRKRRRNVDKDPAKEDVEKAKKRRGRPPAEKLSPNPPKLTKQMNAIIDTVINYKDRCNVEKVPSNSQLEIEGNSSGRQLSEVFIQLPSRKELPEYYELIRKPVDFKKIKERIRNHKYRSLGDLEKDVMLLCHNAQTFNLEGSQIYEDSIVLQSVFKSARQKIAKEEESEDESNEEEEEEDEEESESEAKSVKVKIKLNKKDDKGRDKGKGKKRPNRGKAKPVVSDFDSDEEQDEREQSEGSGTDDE

[6] = target: T2, von Hippel-Lindau disease tumor suppressor/SWI/SNF-related matrix-associated actin-dependent regulator of chromatin subfamily A member 2; experiment: PROTAC activity at VHL/C-terminal HiBiT fused SMARCA2 in human HeLa cells assessed as induction of SMARCA2 degradation by measuring maximal efficacy incubated for 24 hrs by Nano-Glo HiBiT analysis relative to control; format: cell-based
Target sequence in this assay (P40337 whole entry, looked up, the tested form may be a part): as the sequence (P40337 whole entry, looked up, the tested form may be a part) above
Target sequence in this assay (P51531 whole entry, looked up, the tested form may be a part): as the sequence (P51531 whole entry, looked up, the tested form may be a part) above

SK-MEL-5 [7] = experiment: Antiproliferative activity against SMARCA4-deficient human SK-MEL-5 cells assessed as cell growth inhibition by measuring maximal efficacy measured after 7 days by WST-8 assay relative to control; format: functional; conditions: time 7 day
NCI-H1944 [8] = experiment: Antiproliferative activity against SMARCA4-deficient human NCI-H1944 cells assessed as cell growth inhibition measured after 7 days by WST-8 assay; format: functional; conditions: NCI-H1944, 168 h, time 7 day
[9] = target: T1, von Hippel-Lindau disease tumor suppressor/SWI/SNF-related matrix-associated actin-dependent regulator of chromatin subfamily A member 4; experiment: PROTAC activity at VHL/SMARCA4 in human SW1573 cells assessed as induction of […] degradation by measuring maximal efficacy incubated for 20 hrs by Western blotting analysis relative to control; format: cell-based
Target sequence in this assay (P40337 whole entry, looked up, the tested form may be a part): as the sequence (P40337 whole entry, looked up, the tested form may be a part) above
Target sequence in this assay (P51532 whole entry, looked up, the tested form may be a part): as the sequence (P51532 whole entry, looked up, the tested form may be a part) above

NCI-H1975 [10] = experiment: Antiproliferative activity against human NCI-H1975 cells expressing wild-type SMARCA2 assessed as cell growth inhibition by measuring maximal efficacy measured after 7 days by WST-8 assay relative to control; format: functional; conditions: time 7 day
SK-MEL-5 [11] = experiment: Antiproliferative activity against SMARCA4-deficient human SK-MEL-5 cells assessed as cell growth inhibition measured after 7 days by WST-8 assay; format: functional; conditions: SK-MEL-5, 168 h, time 7 day
[12] = Antiproliferative activity against SMARCA4-deficient human NCI-H1568 cells assessed as cell growth inhibition measured after 7 days by WST-8 assay; format: functional; conditions: NCI-H1568, 168 h, time 7 day
NCI-H1299 [13] = experiment: Antiproliferative activity against SMARCA4-deficient human NCI-H1299 cells assessed as cell growth inhibition measured after 7 days by WST-8 assay; format: functional; conditions: NCI-H1299, 168 h, time 7 day
A549 [14] = experiment: Antiproliferative activity against SMARCA4-deficient human A549 cells assessed as cell growth inhibition measured after 7 days by WST-8 assay; format: functional; conditions: A549, 168 h, time 7 day
NCI-H647 [15] = experiment: Antiproliferative activity against human NCI-H647 cells expressing wild-type SMARCA2 assessed as cell growth inhibition measured after 7 days by WST-8 assay; format: functional; conditions: NCI-H647, 168 h, time 7 day
NCI-H1793 [16] = experiment: Antiproliferative activity against SMARCA4-deficient human NCI-H1793 cells assessed as cell growth inhibition measured after 7 days by WST-8 assay; format: functional; conditions: NCI-H1793, 168 h, time 7 day
NCI-H1693 [17] = experiment: Antiproliferative activity against SMARCA4-deficient human NCI-H1693 cells assessed as cell growth inhibition measured after 7 days by WST-8 assay; format: functional; conditions: NCI-H1693, 168 h, time 7 day
[18] = target: T2, von Hippel-Lindau disease tumor suppressor/SWI/SNF-related matrix-associated actin-dependent regulator of chromatin subfamily A member 2; experiment: PROTAC activity at VHL/C-terminal HiBiT fused SMARCA2 in human HeLa cells assessed as induction of SMARCA2 degradation incubated for 24 hrs by Nano-Glo HiBiT analysis; format: cell-based
[19] = target: T2, von Hippel-Lindau disease tumor suppressor/SWI/SNF-related matrix-associated actin-dependent regulator of chromatin subfamily A member 2; experiment: PROTAC activity at VHL/SMARCA2 in human SW1573 cells assessed as induction of SMARCA2 degradation incubated for 20 hrs by Western blotting analysis; format: cell-based
NCI-H1793 [20] = experiment: Antiproliferative activity against SMARCA4-deficient human NCI-H1793 cells assessed as cell growth inhibition by measuring maximal efficacy measured after 7 days by WST-8 assay relative to control; format: functional; conditions: time 7 day
NCI-H838 [21] = experiment: Antiproliferative activity against SMARCA4-deficient human NCI-H838 cells assessed as cell growth inhibition measured after 7 days by WST-8 assay; format: functional; conditions: NCI-H838, 168 h, time 7 day
[22] = target: T1, von Hippel-Lindau disease tumor suppressor/SWI/SNF-related matrix-associated actin-dependent regulator of chromatin subfamily A member 4; experiment: PROTAC activity at VHL/C-terminal HiBiT fused SMARCA4 in human HeLa cells assessed as induction of SMARCA4 degradation by measuring maximal efficacy incubated for 24 hrs by Nano-Glo HiBiT analysis relative to control; format: cell-based
Target sequence in this assay (P40337 whole entry, looked up, the tested form may be a part): as the sequence (P40337 whole entry, looked up, the tested form may be a part) above
Target sequence in this assay (P51532 whole entry, looked up, the tested form may be a part): as the sequence (P51532 whole entry, looked up, the tested form may be a part) above

SK-MEL-28 [23] = experiment: Antiproliferative activity against human SK-MEL-28 cells expressing wild-type SMARCA2 assessed as cell growth inhibition by measuring maximal efficacy measured after 7 days by WST-8 assay relative to control; format: functional; conditions: time 7 day
[24] = target: T1, von Hippel-Lindau disease tumor suppressor/SWI/SNF-related matrix-associated actin-dependent regulator of chromatin subfamily A member 4; experiment: PROTAC activity at VHL/C-terminal HiBiT fused SMARCA4 in human HeLa cells assessed as induction of SMARCA4 degradation incubated for 6 to 48 hrs by Nano-Glo HiBiT analysis; format: cell-based; conditions: dose lower 1e-05 µM, dose upper 1.0 µM, time 6-48 hrs
Target sequence in this assay (P40337 whole entry, looked up, the tested form may be a part): as the sequence (P40337 whole entry, looked up, the tested form may be a part) above
Target sequence in this assay (P51532 whole entry, looked up, the tested form may be a part): as the sequence (P51532 whole entry, looked up, the tested form may be a part) above

NCI-H1944 [25] = experiment: Antiproliferative activity against SMARCA4-deficient human NCI-H1944 cells assessed as cell growth inhibition by measuring maximal efficacy measured after 7 days by WST-8 assay relative to control; format: functional; conditions: time 7 day
A549 [26] = experiment: Antiproliferative activity against SMARCA4-deficient human A549 cells assessed as cell growth inhibition by measuring maximal efficacy measured after 7 days by WST-8 assay relative to control; format: functional; conditions: time 7 day
[27] = target: T2, von Hippel-Lindau disease tumor suppressor/SWI/SNF-related matrix-associated actin-dependent regulator of chromatin subfamily A member 2; experiment: PROTAC activity at VHL/C-terminal HiBiT fused SMARCA2 in human HeLa cells assessed as induction of SMARCA2 degradation incubated for 6 to 48 hrs by Nano-Glo HiBiT analysis; format: cell-based; conditions: dose lower 1e-06 µM, dose upper 1.0 µM, time 6-48 hrs
Target sequence in this assay (P40337 whole entry, looked up, the tested form may be a part): as the sequence (P40337 whole entry, looked up, the tested form may be a part) above
Target sequence in this assay (P51531 whole entry, looked up, the tested form may be a part): as the sequence (P51531 whole entry, looked up, the tested form may be a part) above

NCI-H1792 [28] = experiment: Antiproliferative activity against human NCI-H1792 cells expressing wild-type SMARCA2 assessed as cell growth inhibition measured after 7 days by WST-8 assay; format: functional; conditions: NCI-H1792, 168 h, time 7 day
NCI-H1792 [29] = experiment: Antiproliferative activity against human NCI-H1792 cells expressing wild-type SMARCA2 assessed as cell growth inhibition by measuring maximal efficacy measured after 7 days by WST-8 assay relative to control; format: functional; conditions: time 7 day
NCI-H1975 [30] = experiment: Antiproliferative activity against human NCI-H1975 cells expressing wild-type SMARCA2 assessed as cell growth inhibition measured after 7 days by WST-8 assay; format: functional; conditions: NCI-H1975, 168 h, time 7 day
NCI-H647 [31] = experiment: Antiproliferative activity against human NCI-H647 cells expressing wild-type SMARCA2 assessed as cell growth inhibition by measuring maximal efficacy measured after 7 days by WST-8 assay relative to control; format: functional; conditions: time 7 day
[32] = target: T2, von Hippel-Lindau disease tumor suppressor/SWI/SNF-related matrix-associated actin-dependent regulator of chromatin subfamily A member 2; experiment: PROTAC activity at VHL/SMARCA2 in human SW1573 cells assessed as induction of SMARCA2 degradation by measuring maximal efficacy incubated for 20 hrs by Western blotting analysis relative to control; format: cell-based
Target sequence in this assay (P40337 whole entry, looked up, the tested form may be a part): as the sequence (P40337 whole entry, looked up, the tested form may be a part) above
Target sequence in this assay (P51531 whole entry, looked up, the tested form may be a part): as the sequence (P51531 whole entry, looked up, the tested form may be a part) above

NCI-H1693 [33] = experiment: Antiproliferative activity against SMARCA4-deficient human NCI-H1693 cells assessed as cell growth inhibition by measuring maximal efficacy measured after 7 days by WST-8 assay relative to control; format: functional; conditions: time 7 day
[34] = Antiproliferative activity against SMARCA4-deficient human NCI-H1568 cells assessed as cell growth inhibition by measuring maximal efficacy measured after 7 days by WST-8 assay relative to control; format: functional; conditions: time 7 day
[35] = target: T1, von Hippel-Lindau disease tumor suppressor/SWI/SNF-related matrix-associated actin-dependent regulator of chromatin subfamily A member 4; experiment: PROTAC activity at VHL/SMARCA4 in human SW1573 cells assessed as induction of […] degradation incubated for 20 hrs by Western blotting analysis; format: cell-based
SK-MEL-28 [36] = experiment: Antiproliferative activity against human SK-MEL-28 cells expressing wild-type SMARCA2 assessed as cell growth inhibition measured after 7 days by WST-8 assay; format: functional; conditions: SK-MEL-28, 168 h, time 7 day
[37] = target: SWI/SNF-related matrix-associated actin-dependent regulator of chromatin subfamily A member 4 (Homo sapiens, UniProt P51532); experiment: Binding affinity to SMARCA4 (unknown origin)
[38] = target: SWI/SNF-related matrix-associated actin-dependent regulator of chromatin subfamily A member 2 (Homo sapiens, UniProt P51531); experiment: Binding affinity to SMARCA2 (unknown origin)

In the case of `Cc1ncsc1-c1ccc([C@H](C)NC(=O)[C@@H]2C[C@@H](O)CN2C(=O)[C@@H](c2cc(N3CCC(CN4CCC(O[C@H]5C[C@H](Oc6cccc(CN7C8CCC7CN(c7cc(-c9ccccc9O)nnc7N)C8)c6)C5)CC4)CC3)no2)C(C)C)cc1`, the Activity [1] is reported as “Tde”, the Imax (NCI-H838 [2]) is reported as 93% and the DC50 [3] is reported as 2 nM. The Imax (NCI-H1299 [4]) was 68%, the Activity [5] was “Tde” and the Emax [6] was 96%. It also gave an Imax (SK-MEL-5 [7]) of 96%, a GI50 (NCI-H1944 [8]) of 0.9 nM and an Emax [9] of 92%. The Imax (NCI-H1975 [10]) was 50%, the GI50 (SK-MEL-5 [11]) was 0.4 nM and the GI50 [12] was 0.3 nM. For the same molecule, the GI50 (NCI-H1299 [13]) was 31 nM, the GI50 (A549 [14]) was 3.3 nM and the GI50 (NCI-H647 [15]) was 8.1 nM. For the same molecule, the GI50 (NCI-H1793 [16]) was 1 nM, the GI50 (NCI-H1693 [17]) was 0.2 nM and the DC50 [18] was 0.12 nM. For the same molecule, the DC50 [19] was 0.039 nM, the Imax (NCI-H1793 [20]) was 67% and the GI50 (NCI-H838 [21]) was 5 nM. The Emax [22] was 98%, the Imax (SK-MEL-28 [23]) was 92% and the Activity [24] was “Dose-Dependent Effect”. For the same molecule, the Imax (NCI-H1944 [25]) was 87%, the Imax (A549 [26]) was 52% and the Activity [27] was “Dose-Dependent Effect”. For the same molecule, the GI50 (NCI-H1792 [28]) was 17 nM, the Imax (NCI-H1792 [29]) was 69% and the GI50 (NCI-H1975 [30]) was 18 nM. For the same molecule, the Imax (NCI-H647 [31]) was 68%, the Emax [32] was 96% and the Imax (NCI-H1693 [33]) was 82%. It also gave an Imax [34] of 84%, a DC50 [35] of 1.1 nM and a GI50 (SK-MEL-28 [36]) of 8.1 nM.

With `Cn1cc(-c2cc(-c3ccccc3O)nnc2N)cn1` the Kd [37] was 12.8 nM and the Kd [38] was 10 nM.

Source: ChEMBL document CHEMBL5325488, “Discovery of SMD-3040 as a Potent and Selective SMARCA2 PROTAC Degrader with Strong in vivo Antitumor Activity” (J Med Chem, 2023)
